According to US20110059043A1, “CHEMICAL COMPOUNDS” (priority 2009, published 2011):

How the values were obtained:
[1] = biological target: T1, Recombinant HCV polymerase (BK strain) (Hepatitis C virus genotype 1b, UniProt P26663); test: HCV polymerase enzyme assay (radiometric [33P]-UTP incorporation); assay type: biochemical, HCV 1b
T1 construct: Recombinant HCV polymerase (BK strain) was expressed and purified from E. coli with a 21 amino acid C-terminal deletion; His6; made in house; host or cells: E. coli
Summary of the method: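 His6-tagged BK-strain NS5B lacking 21 C-terminal residues, expressed in E. coli, at 100 nM in Tris pH 7.5 with 5 mM MgCl2 and 3% DMSO. Substrates: 125 nM biotin-U13:0.63 μg/ml PolyA, 200 nM UTP plus [33P]-UTP; 100 min at 25° C. Incorporation read by streptavidin capture; IC50 from 8-point curve.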

[2] = tested on: HCV replicon cells Huh 9B; assay type: cell-based; conditions: concentration reducing total cell area by 50% relative to DMSO controls; 72 h
Summary of the method: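 Huh 9B replicon cells (luciferase-ubiquitin-neomycin fusion, EMCV-IRES-driven HCV polyprotein with adaptive mutations) were seeded from a 100,000 cells/ml suspension in G418-free medium, grown 24 h, then exposed to compound (dilutions at 1% DMSO) for 72 h at 37 °C. For toxicity, methylene blue staining was read at 620 nm and TD50 derived relative to DMSO controls.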

[3] = tested on: HCV replicon cells Huh 9B; test: HCV replicon assay (luciferase); assay type: cell-based; conditions: Hepatitis C virus, reduction of replicon level by 50% vs untreated cell control, 72 h

T1 sequence (P26663 2420-2989): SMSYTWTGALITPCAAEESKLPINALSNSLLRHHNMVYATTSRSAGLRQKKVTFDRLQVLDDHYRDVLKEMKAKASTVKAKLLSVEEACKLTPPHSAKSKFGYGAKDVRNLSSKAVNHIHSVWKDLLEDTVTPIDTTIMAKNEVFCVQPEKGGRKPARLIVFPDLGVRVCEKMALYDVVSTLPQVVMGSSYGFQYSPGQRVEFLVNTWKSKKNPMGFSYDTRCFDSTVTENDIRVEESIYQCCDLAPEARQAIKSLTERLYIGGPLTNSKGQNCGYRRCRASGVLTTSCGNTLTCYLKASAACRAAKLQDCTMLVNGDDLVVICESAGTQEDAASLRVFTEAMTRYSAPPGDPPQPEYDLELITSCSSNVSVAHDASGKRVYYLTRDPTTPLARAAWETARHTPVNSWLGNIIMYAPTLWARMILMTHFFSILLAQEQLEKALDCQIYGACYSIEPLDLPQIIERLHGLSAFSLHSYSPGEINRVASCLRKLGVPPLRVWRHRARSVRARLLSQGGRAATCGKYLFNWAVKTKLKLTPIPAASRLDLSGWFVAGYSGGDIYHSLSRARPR

| SMILES | IC50 [1] [nM] | Replicon Assay Value TD50 [2] [µM] | IC50 [3] [nM] |
| --- | --- | --- | --- |
| COCCOc1ccc(Cl)cc1C(=O)N[C@H]1N=C(c2c(Cl)cc(Cl)cc2Cl)c2ccccc2NC1=O [Example 59, (S)-5-Chloro-2-(2-methoxyethoxy)-N-(2-oxo-5-(2,4,6-trichlorophenyl)-2,3-dihydro-1H-benzo[e][1,4]diazepin-3-yl)benzamide] | 87.6 | >25 | 45.3 |
| COCCOc1ccc(Cl)cc1C(=O)N[C@@H]1N=C(c2c(Cl)cc(Cl)cc2Cl)c2ccccc2NC1=O [Example 60, (R)-5-Chloro-2-(2-methoxyethoxy)-N-(2-oxo-5-(2,4,6-trichlorophenyl)-2,3-dihydro-1H-benzo[e][1,4]diazepin-3-yl)benzamide] | 27700 | >25 | 798 |
| COCCOc1ccc(F)cc1C(=O)N[C@H]1N=C(c2c(Cl)cc(Cl)cc2Cl)c2ccccc2NC1=O [Example 61, (S)-5-Fluoro-2-(2-methoxyethoxy)-N-(2-oxo-5-(2,4,6-trichlorophenyl)-2,3-dihydro-1H-benzo[e][1,4]diazepin-3-yl)benzamide] | 44.4 | 17.347 | 16.7 |
| COCCOc1ccc(F)cc1C(=O)N[C@@H]1N=C(c2c(Cl)cc(Cl)cc2Cl)c2ccccc2NC1=O [Example 62, (R)-5-Fluoro-2-(2-methoxyethoxy)-N-(2-oxo-5-(2,4,6-trichlorophenyl)-2,3-dihydro-1H-benzo[e][1,4]diazepin-3-yl)benzamide] | 16800 | 24.765 | 594 |
| COCCOc1ncc(F)cc1C(=O)N[C@H]1N=C(c2c(Cl)cc(Cl)cc2Cl)c2ccccc2NC1=O [Example 63, (S)-5-Fluoro-2-(2-methoxyethoxy)-N-(2-oxo-5-(2,4,6-trichlorophenyl)-2,3-dihydro-1H-benzo[e][1,4]diazepin-3-yl)nicotinamide] | 50.5 | 17.386 | 9.7 |
| COCCOc1ncc(F)cc1C(=O)N[C@@H]1N=C(c2c(Cl)cc(Cl)cc2Cl)c2ccccc2NC1=O [Example 64, (R)-5-Fluoro-2-(2-methoxyethoxy)-N-(2-oxo-5-(2,4,6-trichlorophenyl)-2,3-dihydro-1H-benzo[e][1,4]diazepin-3-yl)nicotinamide] | 2070 | 23.452 | 241 |
| CCOCCOc1ncc(F)cc1C(=O)N[C@H]1N=C(c2c(Cl)cc(Cl)cc2Cl)c2ccccc2NC1=O [Example 65, (S)-2-(2-Ethoxyethoxy)-5-fluoro-N-(2-oxo-5-(2,4,6-trichlorophenyl)-2,3-dihydro-1H-benzo[e][1,4]diazepin-3-yl)nicotinamide] | 32.3 | 10.854 | 4.8 |
| CCOCCOc1ncc(F)cc1C(=O)N[C@@H]1N=C(c2c(Cl)cc(Cl)cc2Cl)c2ccccc2NC1=O [Example 66, (R)-2-(2-Ethoxyethoxy)-5-fluoro-N-(2-oxo-5-(2,4,6-trichlorophenyl)-2,3-dihydro-1H-benzo[e][1,4]diazepin-3-yl)nicotinamide] | 2220 | 16.686 | 163 |
| COCCN(C)c1ncc(F)cc1C(=O)N[C@H]1N=C(c2c(Cl)cc(Cl)cc2Cl)c2ccccc2NC1=O [Example 67, (S)-5-Fluoro-2-((2-methoxyethyl)(methyl)amino)-N-(2-oxo-5-(2,4,6-trichlorophenyl)-2,3-dihydro-1H-benzo[e][1,4]diazepin-3-yl)nicotinamide] | 36.3 | 13.07 | 11.2 |
| COCCN(C)c1ncc(F)cc1C(=O)N[C@@H]1N=C(c2c(Cl)cc(Cl)cc2Cl)c2ccccc2NC1=O [Example 68, (R)-5-Fluoro-2-((2-methoxyethyl)(methyl)amino)-N-(2-oxo-5-(2,4,6-trichlorophenyl)-2,3-dihydro-1H-benzo[e][1,4]diazepin-3-yl)nicotinamide] | 5170 | 16.618 | 360 |
| CCOc1cc(Cl)cc(Cl)c1C1=N[C@H](NC(=O)c2cc(F)ccc2OCCOC)C(=O)Nc2ccccc21 [Example 69, (S)—N-(5-(2,4-Dichloro-6-ethoxyphenyl)-2-oxo-2,3-dihydro-1H-benzo[e][1,4]diazepin-3-yl)-5-fluoro-2-(2-methoxyethoxy)benzamide] | 79.2 | 17.731 | 31.3 |
| CCOc1cc(Cl)cc(Cl)c1C1=N[C@@H](NC(=O)c2cc(F)ccc2OCCOC)C(=O)Nc2ccccc21 [Example 70, (R)—N-(5-(2,4-Dichloro-6-ethoxyphenyl)-2-oxo-2,3-dihydro-1H-benzo[e][1,4]diazepin-3-yl)-5-fluoro-2-(2-methoxyethoxy)benzamide] | 5360 | 24.592 | 737 |
